Experimental data published in patent publication US20220144853A1, “IMIDAZOLINE DERIVATIVES AS CXCR4 MODULATORS” (Université de Paris, priority 2019, published 2022).
Structures can show the parent of a compound that is named as a salt.

Columns and labels:
[1] = biological target: T1, human CXCR4 (hCXCR4) receptor (Homo sapiens, UniProt P61073); experiment: BRET assay of antagonist activity on the CXCR4-CXCL12 signaling pathway in transfected HEK-293 T cells; type: cell-based; conditions: Gαi1, Gαi2, Gαi3, GαoB or Gαz, EC80 CXCL12, FIG. 6
T1 construct: expressed in transfected cells; host or cells: HEK-293 T cells, transient co-transfection with polyethylenimine
Protocol: Examples of the present invention were tested for their antagonist activity on human CXCR4 (hCXCR4) receptor transiently over-expressed in HEK-293 T cells. Compounds exert antagonist activity if they decrease the action of CXCL12 on the receptor.
HEK-293 T cells are maintained in Dulbecco's Modified Eagle's Medium supplemented with 10% Foetal Calf Serum, 1% Penicillin/Streptomycin at 37° C./5% CO2. […] After transfection, cells are cultured for 48 h at 37° C./5% CO2.
On the day of the assay, cells are detached using trypsin 0.05%, resuspended in assay buffer (1.8 mM CaCl2, 1 mM MgCl2, 2.7 mM KCl, 137 mM NaCl, 0.4 mM NaH2PO4, 5.5 mM D-Glucose, 11.9 mM NaHCO3, 25 mM Hepes) and seeded in 384 well plate at a density of 20,000 cells per well.
Cells are first incubated for 10 minutes with the compound alone. Then, cells are stimulated by an EC80 CXCL12 concentration for additional 10 minutes and luminescence is recorded. […] Antagonist activity is evaluated in comparison to basal signals evoked by EC80 CXCL12 alone.
For IC50 determination, a dose-response test is performed using 20 concentrations (ranging over 6 logs) of each compound. Dose-response curves are fitted using the sigmoidal dose-response (variable slope) analysis in GraphPad Prism software (GraphPad Software) and IC50 of antagonist activity is calculated. […]

IL-12p70 = experiment: Cytokine production by R848-activated PBMCs, LEGENDplex Human Inflammation panel 1: IL-12p70; type: cell-based; conditions: Homo sapiens, PBMC, PBMCs from 2 healthy donors, R848 overnight
Protocol: 2) The PBMCs used herein were prepared as described in part A “immune cells preparation”, section 2) above. PBMCs were seeded at 4.10^6/mL. […] Cells were then stimulated with the TLR7/8 agonist resiquimod—R848 (Sigma-Aldrich, MO, USA) at 5 μg/mL.
Cytokine expression levels were assessed using LEGENDplex Human inflammation panel 1 Kit (BioLegend, California, USA), which is a bead-based multiplex assay, using fluorescence-encoded beads. […] First, supernatants of R848-stimulated PBMCs were harvested after 24 h of stimulation and frozen at −20° C. for storage. Supernatants were dispensed into a 96-well V-bottom plate. Protocol pursued as per manufacturer recommendations (Manual for BioLegend LEGENDplex, Multi-Analyte Flow Assay Kit, Human Inflammation Panel 1, version 750000393_R01).

[2] = test system: IFN production by activated PBMCs; experiment: IFN production by R848-activated PBMCs from healthy donors, twINNE reporter cell line; type: cell-based, human; conditions: Homo sapiens, PBMC, means of two results over 2 healthy donors, R848 5 μg/mL, IT1t: mean over all experiments, read-out: IC50 of anti-inflammatory activity (IFN production)
Procedure, shortened: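 Human PBMCs (4.10^6/mL, RPMI/10% FBS, 37° C) stimulated with R848 at 5 μg/mL; supernatants collected after 24 h. Functional IFN measured on twINNE cells (ISRE-driven luciferase reporter) after 24 h culture by bioluminescence; IC50 from variable-slope dose-response fits.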

[3] = test system: IFN production by activated immune cells (PBMC) from lupus patients; experiment: IFN production by R848-activated PBMC from lupus patients, STING-37 reporter cell line; type: cell-based, human; conditions: 10 μM, PBMC from three SLE patients, FIG. 2
Protocol: Material from Juvenile Dermatomyositis and Lupus patients were obtained from Necker Hospital, Paris, France or from Imagine Institute, Paris, France. The study was approved by the Conité des Protection des Personnes (ID-RCB/EUDRACT: 2014-A01017-40 and 2018-A01358-47) in France.
In vitro experiments were performed using human peripheral blood mononuclear cells (PBMCs) isolated by density centrifugation from peripheral blood leukocyte separation medium (Cambrex, Gaithersburg, Md.).
PBMCs were cultured in RPMI 1640 (Invitrogen, Gaithersburg, Md.) (R10) containing 10% heat-inactivated fetal bovine serum, 100 U/mL Penicilium and 100 μg/mL Streptomycin (1% Pen-Strep) and 1 mM glutamine (Hyclone, Logan, Utah).
1) The PBMCs used herein were prepared as described in part A “immune cells preparation”, section 1) above. PBMCs were seeded at 2.10^6/mL. […] Cells were then stimulated with the TLR7/8 agonist resiquimod—R848 (Invivogen) at 5 μg/mL. […]
1) To quantify the secretion of functional IFN, a biological assay based on a stable cell line where luciferase reporter gene is controlled by five Interferon-Stimulated Response Elements (STING37 cell line) was used. […] After 24 h of culture, luciferase activity was determined by adding 50 μL of Bright-Glo reagents (Promega) to culture wells and measuring bioluminescence with a luminometer.

T1 sequence (P61073 whole entry): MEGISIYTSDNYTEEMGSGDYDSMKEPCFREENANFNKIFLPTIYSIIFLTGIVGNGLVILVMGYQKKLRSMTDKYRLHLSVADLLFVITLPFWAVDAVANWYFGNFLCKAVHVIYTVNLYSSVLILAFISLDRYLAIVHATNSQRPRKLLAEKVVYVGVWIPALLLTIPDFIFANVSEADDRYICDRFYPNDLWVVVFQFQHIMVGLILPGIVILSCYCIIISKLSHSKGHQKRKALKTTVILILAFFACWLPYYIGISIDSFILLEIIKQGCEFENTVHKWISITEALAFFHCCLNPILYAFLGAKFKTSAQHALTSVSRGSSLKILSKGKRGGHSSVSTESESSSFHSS

- antagonist activity: recruitment of G proteins induced by the hCXCR4-CXCL12 interaction [1]: significantly lower than IT1t
Structure (SMILES): CC1(C)CN2C(CSC3=NCC(C)(C)N3)=CSC2=N1 [Example 2, 3-(((5,5-dimethyl-4,5-dihydro-1H-imidazol-2-yl)thio)methyl)-6,6-dimethyl-5,6-dihydroimidazo[2,1-b]thiazole dihydrochloride]
- IC50 (IL-12p70): 14 µM
- IC50 [2]: 10 to 31 µM
- IFN production by activated PBMCs [3]: level similar to the one of unstimulated negative controls
